Measured values reported in paper PMC7980035 (The Journal of Biological Chemistry, 2021).
Read-outs that look alike come from different tables or passages of the source.

Key:
[1] = target: T1, SARS 3C-like proteinase (Severe acute respiratory syndrome coronavirus, UniProt P0C6X7); settings: pH 7.3
[2] = format: physicochemical; settings: pH 7.3
[3] = target: T1, SARS 3C-like proteinase; settings: pH 7.3; remark: listed apart in the source
[4] = pH 7.3
[5] = target: SARS coronavirus 3C-like proteinase, C-terminal His6 tag (plasmid pET 3CLP-21x) (SARS coronavirus) (UniProt P0C6X7); assay: SEC

Row | Substance | Km [1] | kcat [1] | kcat/Km [1] | Calculated secondary structure content: Helix [2] | Calculated secondary structure content: Other [2] | Calculated secondary structure content: Sheet [2] | Calculated secondary structure content: Tum [2] | kcat/Km [3] | solubility [4] | Kd [5]
1 | ATVRLQ/AGNAT [Peptide S06] | 1440 ± 470 µM | 0.0548 ± 0.0178 s⁻¹ | 2.29 ± 0.09 ^a mM^-1 min^-1 | 2 | 43 | 25 | 30 |  |  | 
2 | FYPKLQ/ASQAW [Peptide S11] | 549 ± 105 µM | 0.0262 ± 0.00467 s⁻¹ | 2.86 ± 0.21 ^a mM^-1 min^-1 | 2 | 36 | 30 | 32 |  |  | 
3 | KVATVQ/SKMSD [Peptide S03] |  |  |  | 2 | 46 | 25 | 28 | 0.353 ± 0.013 ^b mM^-1 min^-1 |  | 
4 | NRATLQ/AIASE [Peptide S04] |  |  |  | 2 | 45 | 24 | 30 | 0.556 ± 0.126 ^b mM^-1 min^-1 |  | 
5 | NVATLQ/AENVT [Peptide S09] |  |  |  |  |  |  |  | 0.976 ± 0.014 ^b mM^-1 min^-1 | very low solubility | 
6 | PHTVLQ/AVGAC [Peptide S08] | 1940 ± 660 µM | 0.028 ± 0.0095 s⁻¹ | 0.865 ± 0.028 ^a mM^-1 min^-1 | 5 | 45 | 21 | 29 |  |  | 
7 | REPLMQ/SADAS [Peptide S07] |  |  |  | 1 | 41 | 18 | 40 | 0.0176 ± 0.0022 ^b mM^-1 min^-1 |  | 
8 | SARS coronavirus 3C-like proteinase, C-terminal His6 tag (plasmid pET 3CLP-21x) (from UniProt P0C6X7 3241-3546) (enzyme) |  |  |  |  |  |  |  |  |  | 100 µM
9 | SAVKLQ/NNELS [Peptide S05] |  |  |  | 10 | 44 | 19 | 27 | 0.202 ± 0.003 ^b mM^-1 min^-1 |  | 
10 | SGVTFQ/GKFKK [Peptide S02] | 583 ± 86 µM | 0.0425 ± 0.00583 s⁻¹ | 4.38 ± 0.26 ^a mM^-1 min^-1 | 3 | 31 | 42 | 24 |  |  | 
11 | TFTRLQ/SLENV [Peptide S10] | 286 ± 20 µM | 0.0141 ± 0.00085 s⁻¹ | 2.96 ± 0.11 ^a mM^-1 min^-1 | 4 | 41 | 22 | 33 |  |  | 
